Source: US10745382B2 (BRISTOL-MYERS SQUIBB COMPANY, priority 2015, dated 2020)

The molecules below were run against T1, PD-1/PD-L1 (Homo sapiens, UniProt Q9NZQ7) (assay: PD-1/PD-L1 Homogenous Time-Resolved Fluorescence (HTRF) binding assay). Conditions: PD-L1-His 10 nM, PD-1-Ig 20 nM; value given as range class; read-out: Range or IC50.
T1 construct: made in house; host or cells: HEK293T
Outline: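 Detection by europium cryptate anti-Ig plus APC anti-His (1 nM and 20 nM final) with HTRF signal. Buffer was dPBS, 0.1% BSA, 0.05% Tween-20.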

T1 sequence (Q9NZQ7 with tags, fused parts or gaps): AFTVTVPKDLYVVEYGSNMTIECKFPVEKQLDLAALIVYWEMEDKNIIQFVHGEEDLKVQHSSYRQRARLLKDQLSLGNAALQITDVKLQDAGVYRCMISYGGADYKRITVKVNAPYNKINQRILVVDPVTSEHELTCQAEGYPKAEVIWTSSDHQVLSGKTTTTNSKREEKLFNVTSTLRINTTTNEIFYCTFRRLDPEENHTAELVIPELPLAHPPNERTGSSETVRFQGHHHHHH

IC50, 0.21 to 10 nM:
Cc1c(COc2cc(OCc3cncc(C#N)c3)c(CNC(C)(CO)CO)cc2Cl)cccc1-c1cccc(OCCCNC[C@H](O)CO)c1Cl [Example 2097, (S)-5-((4-chloro-5-((2′-chloro-3′-(3-((2,3-dihydroxypropyl)amino)propoxy)-2-methyl-[1,1′-biphenyl]-3-yl)methoxy)-2-(((1,3-dihydroxy-2-methylpropan-2-yl)amino)methyl)phenoxy)methyl)nicotinonitrile]
Cc1c(COc2cc(OCc3cncc(C#N)c3)c(CNC(C)(CO)CO)cc2Cl)cccc1-c1cccc(OCCCN2CCCC(CO)C2)c1Cl (centres unmarked) [Example 2098, 5-((4-chloro-5-((2′-chloro-3′-(3-(3-(hydroxymethyl)piperidin-1-yl)propoxy)-2-methyl-[1,1′-biphenyl]-3-yl)methoxy)-2-(((1,3-dihydroxy-2-methylpropan-2-yl)amino)methyl)phenoxy)methyl)nicotinonitrile]
Cc1c(COc2cc(OCc3cncc(C(=N)N4CCCC(CO)C4)c3)c(CNC(C)(CO)CO)cc2Cl)cccc1-c1cccc(OCCCN2CCCC(CO)C2)c1Cl (centres unmarked) [Example 2099, 2-((5-chloro-4-((2′-chloro-3′-(3-(3-(hydroxymethyl)piperidin-1-yl)propoxy)-2-methyl-[1,1′-biphenyl]-3-yl)methoxy)-2-((5-((3-(hydroxymethyl)piperidin-1-yl)(imino)methyl)pyridin-3-yl)methoxy)benzyl)amino)-2-methylpropane-1,3-diol]
N=C(c1cncc(COc2cc(OCc3cccc(-c4cccc(OCCCN5CC[C@@H](O)C5)c4Cl)c3Cl)c(Cl)cc2CNC[C@H](O)CO)c1)N1CC[C@@H](O)C1 [Example 2101, (S)-3-((5-chloro-4-((2,2′-dichloro-3′-(3-((R)-3-hydroxypyrrolidin-1-yl)propoxy)-[1,1′-biphenyl]-3-yl)methoxy)-2-((5-(((R)-3-hydroxypyrrolidin-1-yl)(imino)methyl)pyridin-3-yl)methoxy)benzyl)amino)propane-1,2-diol]
Cc1c(COc2cc(OCc3cncc(C#N)c3)c(CNC(C)(CO)CO)cc2Cl)cccc1-c1cccc(OCCCNC(C)(CO)CO)c1Cl [Example 2102, 5-((4-chloro-5-((2′-chloro-3′-(3-((1,3-dihydroxy-2-methylpropan-2-yl)amino)propoxy)-2-methyl-[1,1′-biphenyl]-3-yl)methoxy)-2-(((1,3-dihydroxy-2-methylpropan-2-yl)amino)methyl)phenoxy)methyl)nicotinonitrile]
Cc1c(COc2cc(OCc3cncc(C#N)c3)c(CNC(C)(CO)CO)cc2Cl)cccc1-c1cccc(OCCCN2CC[C@@H](O)C2)c1Cl [Example 2104, (R)-5-((4-chloro-5-((2′-chloro-3′-(3-(3-hydroxypyrrolidin-1-yl)propoxy)-2-methyl-[1,1′-biphenyl]-3-yl)methoxy)-2-(((1,3-dihydroxy-2-methylpropan-2-yl)amino)methyl)phenoxy)methyl)nicotinonitrile]
Cc1c(COc2cc(OCc3cncc(C(=N)N4CC[C@@H](O)C4)c3)c(CNC(C)(CO)CO)cc2Cl)cccc1-c1cccc(OCCCN2CC[C@@H](O)C2)c1Cl [Example 2105, 2-((5-chloro-4-((2′-chloro-3′-(3-((R)-3-hydroxypyrrolidin-1-yl)propoxy)-2-methyl-[1,1′-biphenyl]-3-yl)methoxy)-2-((5-(((R)-3-hydroxypyrrolidin-1-yl)(imino)methyl)pyridin-3-yl)methoxy)benzyl)amino)-2-methylpropane-1,3-diol]
N#Cc1cncc(COc2cc(OCc3cccc(-c4cccc(OCCCN5CC[C@@H](O)C5)c4Cl)c3Cl)c(Cl)cc2CN2CCCC[C@H]2C(=O)O)c1 [Example 2106, (S)-1-(5-chloro-2-((5-cyanopyridin-3-yl)methoxy)-4-((2,2′-dichloro-3′-(3-((R)-3-hydroxypyrrolidin-1-yl)propoxy)-[1,1′-biphenyl]-3-yl)methoxy)benzyl)piperidine-2-carboxylic Acid]
CC(CO)(CO)NCc1cc(Cl)c(OCc2cccc(-c3cccc(OCCCN4CC[C@@H](O)C4)c3Cl)c2Cl)cc1OCCC(F)(F)F [Example 2107, (R)-2-((5-chloro-4-((2,2′-dichloro-3′-(3-(3-hydroxypyrrolidin-1-yl)propoxy)-[1,1′-biphenyl]-3-yl)methoxy)-2-(3,3,3-trifluoropropoxy)benzyl)amino)-2-methylpropane-1,3-diol]
CN(C)CCOc1cc(OCc2cccc(-c3cccc(OCCCN4CC[C@@H](O)C4)c3Cl)c2Cl)c(Cl)cc1CNC(C)(CO)CO [Example 2108, (R)-2-((5-chloro-4-((2,2′-dichloro-3′-(3-(3-hydroxypyrrolidin-1-yl)propoxy)-[1,1′-biphenyl]-3-yl)methoxy)-2-(2-(dimethylamino)ethoxy)benzyl)amino)-2-methylpropane-1,3-diol]
COCC(COC)NCc1cc(Cl)c(OCc2cccc(-c3cccc(OCCCN4CC[C@@H](O)C4)c3Cl)c2C)cc1OCc1cncc(C#N)c1 [Example 2109, (R)-5-((4-chloro-5-((2′-chloro-3′-(3-(3-hydroxypyrrolidin-1-yl)propoxy)-2-methyl-[1,1′-biphenyl]-3-yl)methoxy)-2-(((1,3-dimethoxypropan-2-yl)amino)methyl)phenoxy)methyl)nicotinonitrile]
Cc1c(COc2cc(OCc3cncc(C#N)c3)c(CNC3(CO)COC3)cc2Cl)cccc1-c1cccc(OCCCN2CC[C@@H](O)C2)c1Cl [Example 2110, (R)-5-((4-chloro-5-((2′-chloro-3′-(3-(3-hydroxypyrrolidin-1-yl)propoxy)-2-methyl-[1,1′-biphenyl]-3-yl)methoxy)-2-(((3-(hydroxymethyl)oxetan-3-yl)amino)methyl)phenoxy)methyl)nicotinonitrile]
CCN(Cc1cc(Cl)c(OCc2cccc(-c3cccc(OCCCN4CC[C@@H](O)C4)c3Cl)c2C)cc1OCc1cncc(C#N)c1)C(CO)CO [Example 2111, (R)-5-((4-chloro-5-((2′-chloro-3′-(3-(3-hydroxypyrrolidin-1-yl)propoxy)-2-methyl-[1,1′-biphenyl]-3-yl)methoxy)-2-(((1,3-dihydroxypropan-2-yl)(ethyl)amino)methyl)phenoxy)methyl)nicotinonitrile]
CC(CO)(CO)NCc1cc(Cl)c(OCc2cccc(-c3cccc(OCCCN4CC[C@@H](O)C4)c3Cl)c2Cl)cc1OCc1cc(Cl)ccc1Cl [Example 2112, (R)-2-((5-chloro-4-((2,2′-dichloro-3′-(3-(3-hydroxypyrrolidin-1-yl)propoxy)-[1,1′-biphenyl]-3-yl)methoxy)-2-((2,5-dichlorobenzyl)oxy)benzyl)amino)-2-methylpropane-1,3-diol]
Cc1c(COc2cc(OCc3cncc(C#N)c3)c(CN(CC3CC3)C(CO)CO)cc2Cl)cccc1-c1cccc(OCCCN2CC[C@@H](O)C2)c1Cl [Example 2113, (R)-5-((4-chloro-5-((2′-chloro-3′-(3-(3-hydroxypyrrolidin-1-yl)propoxy)-2-methyl-[1,1′-biphenyl]-3-yl)methoxy)-2-(((cyclopropylmethyl)(1,3-dihydroxypropan-2-yl)amino)methyl)phenoxy)methyl)nicotinonitrile]
Cc1c(COc2cc(OCc3cncc(C#N)c3)c(CN(CC3CC3)C(C)(CO)CO)cc2Cl)cccc1-c1cccc(OCCCN2CC[C@@H](O)C2)c1Cl [Example 2114, (R)-5-((4-chloro-5-((2′-chloro-3′-(3-(3-hydroxypyrrolidin-1-yl)propoxy)-2-methyl-[1,1′-biphenyl]-3-yl)methoxy)-2-(((cyclopropylmethyl)(1,3-dihydroxy-2-methylpropan-2-yl)amino)methyl)phenoxy)methyl)nicotinonitrile]
Cc1c(COc2cc(OCc3cncc(C#N)c3)c(CN3CCOC[C@H]3CO)cc2Cl)cccc1-c1cccc(OCCCN2CC[C@@H](O)C2)c1Cl [Example 2115, 5-((4-chloro-5-((2′-chloro-3′-(3-((R)-3-hydroxypyrrolidin-1-yl)propoxy)-2-methyl-[1,1′-biphenyl]-3-yl)methoxy)-2-(((R)-3-(hydroxymethyl)morpholino)methyl)phenoxy)methyl)nicotinonitrile]
Cc1c(COc2cc(OCc3cncc(C#N)c3)c(CNC[C@H](O)CO)cc2Cl)cccc1-c1cccc(OCCCO)c1Cl [Example 2116, (S)-5-((4-chloro-5-((2′-chloro-3′-(3-hydroxypropoxy)-2-methyl-[1,1′-biphenyl]-3-yl)methoxy)-2-(((2,3-dihydroxypropyl)amino)methyl)phenoxy)methyl)nicotinonitrile]
Cc1c(COc2cc(OCc3cncc(C(N)=O)c3)c(CNC[C@H](O)CO)cc2Cl)cccc1-c1cccc(OCCCO)c1Cl [Example 2117, (S)-5-((4-chloro-5-((2′-chloro-3′-(3-hydroxypropoxy)-2-methyl-[1,1′-biphenyl]-3-yl)methoxy)-2-(((2,3-dihydroxypropyl)amino)methyl)phenoxy)methyl)nicotinamide]
Cc1c(COc2cc(OCc3cncc(C#N)c3)c(CNC(C)(CO)CO)cc2Cl)cccc1-c1cccc(OCCC(=O)NC[C@H](O)CO)c1Cl [Example 2118, (S)-3-((2-chloro-3′-((2-chloro-5-((5-cyanopyridin-3-yl)methoxy)-4-(((1,3-dihydroxy-2-methylpropan-2-yl)amino)methyl)phenoxy)methyl)-2′-methyl-[1,1′-biphenyl]-3-yl)oxy)-N-(2,3-dihydroxypropyl)propanamide]
